According to ChEMBL document CHEMBL3886716, “Methods of modulating the activity of the MC5 receptor and treatment of conditions related to this receptor” (2016):

Biological target: Melanocortin receptor 5 (Homo sapiens, UniProt P33032)
Assay: Radioligand Binding Assay: Assessments of compound binding to human MC5R (hMC5R)) by displacement of an 125I-labeled NDP-MSH receptor ligand peptide were performed essentially as described in the data sheets produced by Perkin Elmer to accompany their frozen hMC5R membranes (Perkin Elmer catalog number RBXMC5M400UA). [125I] NDP-MSH: Radiolabeled in House and Purified by HPLC: Na125I (0.5 mCi, 17.4 Ci/mg) was added to 50 μL sodium phosphate (50 mM, pH 7.4) in an eppendorf tube precoated with IODOGEN. After incubation for 10 mins the phosphate buffer containing the iodine was added to NDP-MSH (10 μl at 1 mg/mL) in a separate eppendorf tube. This was incubated for a further 10 mins. The iodinated NDP-MSH was purified by HPLC on a Zorbax SB 300 column using solvent A: 0.05% TFA and solvent B: 90% acetonitrile 0.045% TFA with a linear gradient, 0-67% B over 60 mins. The 125I NDP-MSH eluted at 52 mins after the unlabeled starting material (48 min) and was counted and stored in the freezer. […] Incubation buffer: 25 mM HEPES-KOH (pH 7.0), 1.5 mM CaCl2, 1 mM MgSO4, 0.1 M NaCl, 1 mM 1,10-phenanthroline, and 1 Complete™ protease inhibitor tablet/100 mL (Roche, catalog number 1873580). Perkin Elmer frozen hMC5 membranes: catalog number RBXMC5M400UA, 0.4 mL/vial; 400 microassays/vial, 0.78 mg/mL protein concentration. Vials of frozen membranes were thawed rapidly immediately before use, diluted with binding buffer and vortexed. Resuspended membranes were kept on ice until they were added to the wells of the plate. Assays were performed in 96 well polypropylene plates. […] This was incubated for 1 hr at 37° C.

Sequence of Melanocortin receptor 5 (P33032 whole entry): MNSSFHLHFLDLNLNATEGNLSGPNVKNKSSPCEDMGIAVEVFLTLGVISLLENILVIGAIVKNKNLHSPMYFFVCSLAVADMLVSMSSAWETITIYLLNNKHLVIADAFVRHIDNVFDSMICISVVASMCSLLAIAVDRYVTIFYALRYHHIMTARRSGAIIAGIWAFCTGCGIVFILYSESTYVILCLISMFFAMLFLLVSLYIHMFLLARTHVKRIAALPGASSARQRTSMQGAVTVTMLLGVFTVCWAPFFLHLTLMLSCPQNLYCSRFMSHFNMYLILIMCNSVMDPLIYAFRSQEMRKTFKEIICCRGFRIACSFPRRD

Row | SMILES | IC50
1 | N=C(N)NCCC[C@@H]1N[C@H](CNC(=O)/C=C/c2ccc(Cl)cc2)CCN(CC(c2ccccc2)c2ccccc2)C1=O | < 100 nM
2 | N=C(N)NCCC[C@@H]1N[C@H](CNC(=O)c2ccc3cc(O)ccc3c2)CCN(CC(c2ccccc2)c2ccccc2)C1=O | < 100 nM
3 | N=C(N)NCCC[C@@H]1N[C@H](CNC(=O)c2cccc(Oc3ccccc3)c2)CCN(CC(c2ccccc2)c2ccccc2)C1=O | < 100 nM
4 | N=C(N)NCCC[C@@H]1N[C@H](CNC(=O)c2ccc3ccccc3c2)CCN(CCc2ccc(Cl)cc2Cl)C1=O | < 1000 nM
5 | O=C(/C=C/c1ccc(Cl)cc1)NC[C@@H]1CCN(CC(c2ccccc2)c2ccccc2)C(=O)[C@H](CC2CCCCC2)N1 | < 1000 nM
6 | N=C(N)NCCC[C@@H]1N[C@H](CNC(=O)c2ccc3ccccc3c2)CCN(CCc2ccc(Cl)c(Cl)c2)C1=O | < 10000 nM
7 | N=C(N)NCCC[C@@H]1N[C@H](CNC(=O)c2ccc(Oc3ccccc3)cc2)CCN(CC(c2ccccc2)c2ccccc2)C1=O | < 1000 nM
